Data: patent publication EP4559466A1, “MICROBIOTA SIGNATURE TO DETECT FOOD ADDICTION AND TREATMENT THEREOF” (Universitat Pompeu Fabra (UPF), priority 2023, dated 2025)

Tests used:
Blautia [1] = assay: Quantitative PCR of Blautia in mouse feces after prebiotic treatment; assay type: in vivo; settings: 1% in drinking water, feces collected at end of protocol, qPCR, vs control
Experimental: At the end of the protocol, feces were collected to quantify Blautia abundance in the gut by quantitative PCR. DNA was extracted from 0.18-0.2g of feces using QIAamp® Fast DNA Stool Mini kit (Qiagen, Germany) and was stored at -20°C.
To quantify the Blautia in the feces, primers g-Blau-R (5'-[…]-3') SEQ ID No 3 and g-Blau-F (5'- […]- 3'), targeting SEQ ID No 4 16S rRNA gene, were used, as previously described. Each reaction mixture (10 µl) comprises LightCycler 480 SYBR Green I Master (Roche Life Science, Germany) and 1ng/µl of genomic DNA. The amplification program consisted of one cycle at 95°C for 10 min, followed by 40 cycles at 94°C for 20 s, 55°C for 20 s, and 60°C for 40 s. The fluorescent products were detected in the last step of each cycle. qPCR amplification and detection were performed in 384-well optical plates with an QuantStudio 12K Flex Real-Time PCR System (Applied Biosystems). A melting curve analysis was performed at the end of the experiment to determine the specificity of an assay. The melting program consisted of the first step of 95°C for 15 s, the second step of 60°C for 1 min, and the last dissociation step of 95°C for 15 s. […]
A qPCR was performed to confirm the effectiveness of targeted prebiotics in increasing Blautia genus abundance in the gut. Based on the generated standard curve, the amount of Blautia per gram of feces was determined. […]

Blautia [2] = settings: Reichardt et al. 2018 (rhamnose); Cui et al. 2021 (lactulose); cited from earlier work
C57BI/6J mice = assay: Mouse food addiction operant protocol with prebiotics in drinking water; assay type: in vivo; settings: for mice that achieved the addiction criteria (2-3 criteria, considered addicted): 1% in drinking water during whole protocol, 120 sessions, late period (95-112 sessions), n=12 per group, 41.67% of control mice addicted, χ^2=8.57 control vs lactulose, χ^2=12 control vs rhamnose, P<0.01; for persistence of response: compared to control group
Experimental: Mice were trained to obtain chocolate-flavored pellets (n=59) in operant boxes during 98 sessions in 1 h-daily self-administration sessions. The operant boxes and daily self-administration protocol of food addiction were accurately described in previous publications (Martín-García E, Domingo-Rodriguez L, Maldonado R. An Operant Conditioning Model Combined with a Chemogenetic Approach to Study the Neurobiology of Food Addiction in Mice. Bio-Protocol 2020;10:1-23. doi:10.21769/bioprotoc.3777; Domingo-Rodriguez L, Ruiz de Azua I, Dominguez E, et al. A specific prelimbic-nucleus accumbens pathway controls resilience versus vulnerability to food addiction. Nat Commun 2020;11:1-16. doi:10.1038/s41467-020-14458-y). Mice were under fixed-ratio 1 (FR1) during six sessions, followed by 92 sessions under FR5. The food addiction-like behavior was evaluated during this operant conditioning maintained by food at a late period (82-92 sessions) to classify mice into the addictive phenotype considering three food addiction-like criteria (1) persistence of response, (2) motivation, and (3) compulsivity. These criteria summarized the main features of the human food addiction diagnosis through the Yale Food Addiction Scale (YFAS 2.0) based on the 5th edition of the diagnostic and statistical manual of mental disorders (DSM-5) for substance use disorders. The three behavioral tests performed to evaluate these three addiction-like criteria (responding during the pellet-free period for the persistence of response, progressive ratio schedule for motivation, and shock-associated unconditioned stimulus for compulsivity) were performed as previously described (Mancino S, Burokas A, Gutiérrez-Cuesta J, et al. Epigenetic and Proteomic Expression Changes Promoted by Eating Addictive-Like Behavior. Neuropsychopharmacology 2015;40:2788-800. doi:10.1038/npp.2015.129). At the end of the late period, animals were categorized into two subpopulations, food-addicted or nonaddicted, depending on the number of addiction-like criteria achieved. Mice with two or three addiction-like criteria were considered addicted, and mice with 0 or 1 addiction-like criteria were considered nonaddicted.
Additionally, four additional phenotypic traits were also evaluated as factors of vulnerability, impulsivity, cognitive inflexibility, appetitive and aversive cue-reactivity. • Impulsivity, the inability to stop a response once it is initiated, was measured as the number of non-reinforced active responses during the time-out period (10 s) after each pellet delivery. This impulsivity-like behavior was delimited to the three consecutive days before the progressive ratio. • Cognitive inflexibility is the incapacity to shift responding to stimuli that have previously predicted the availability of reward. […] In the next 30 min, the cue light associated with pellet delivery during a typical operant training session was illuminated with no contingent pellet reinforcement. To signal the change in the schedule, the cue light was presented twice non-contingently and for 4 s. • Aversive cue-reactivity: To study the conditioning to an aversive stimulus (grid floor), non-reinforced active responses during the following session after the shock test were measured. Mice were placed in the operant box for one hour with the same grid floor used during the shock test. However, during this session, pressing the active lever had no consequences: no shock, no chocolate-flavored pellets, and no cue light.
Mice (n=36) were trained in the same experimental conditions previously described to obtain chocolate flavored pellets during 120 sessions of a 1h-daily self-administration protocol. The duration of training was enhanced in this experiment in order to allow a longer exposure to the prebiotics that could facilitate their effects to modify the behavioral responses. Mice were trained for six days at FR1, followed by 114 FR5 sessions. […]

[3] = 1% in drinking water, late period

Row | SMILES | Blautia abundance in the gut (amount of Blautia per gram of feces) (Blautia [1]) | amount of Blautia in mice feaces (Blautia [2]) | mice that achieved the addiction criteria (2-3 criteria, considered addicted) (C57BI/6J mice) | persistence of response (C57BI/6J mice; [3]) | cognitive inflexibility (C57BI/6J mice; 1% in drinking water, late period, compared to control (U=35.50, P<0.05) and lactulose (U=17.00, P<0.001)) | compulsivity in seeking for palatable food (C57BI/6J mice; 1% in drinking water, late period, compared to control mice, Mann-Whitney's U=31.50, P<0.01) | motivation for chocolate-flavored pellets (C57BI/6J mice; 1% in drinking water, late period, rhamnose compared to lactulose, Mann-Whitney's U=31.50, P<0.05)
1 | OC[C@H]1O[C@@H](O[C@@H]2[C@@H](CO)OC(O)(CO)[C@H]2O)[C@H](O)[C@@H](O)[C@H]1O (stereo partly drawn) [lactulose, 4-O-β-D-galactopyranosyl-D-fructofuranose, reference compound] | non-significant trend to enhance | increases | none | similar | – | – | –
2 | C[C@@H]1OC(O)[C@H](O)[C@H](O)[C@H]1O (stereo partly drawn) [rhamnose, (3R,4R,5R,6S)-6-methyloxane-2,3,4,5-tetrol] | significantly increased | increases | none | similar | lower | decreased | reduced
